Results from ChEMBL document CHEMBL4138105, “LL-37-derived short antimicrobial peptide KR-12-a5 and its d-amino acid substituted analogs with cell selectivity, anti-biofilm activity, synergistic effect with conventional antibiotics, and anti-inflammatory activity” (Eur J Med Chem, 2017).
Values after ≈ are worked out from the molar mass of the structure shown. Active and inactive are the calls of the source. The calls are words filed in the database; no cut-off is given here.

Tests used:
Escherichia coli [1] = assay: Antibacterial activity against Escherichia coli KCTC 1682 after 24 hrs; assay type: functional; details: KCTC 1682, 24 h
Pseudomonas aeruginosa [2] = assay: Antibacterial activity against Pseudomonas aeruginosa KCTC 1637 after 24 hrs; assay type: functional; details: KCTC 1637, 24 h
Salmonella typhimurium = assay: Antibacterial activity against Salmonella typhimurium KCTC 11926 after 24 hrs; assay type: functional, Salmonella enterica subsp. enterica serovar Typhimurium; details: Salmonella enterica, KCTC 11926, 24 h
[3] = system: Staphylococcus epidermidis; assay: Antibacterial activity against Staphylococcus epidermidis KCTC 1917 after 24 hrs; assay type: functional; details: KCTC 1917, 24 h
Staphylococcus aureus [4] = assay: Antibacterial activity against Staphylococcus aureus KCTC 1621 after 24 hrs; assay type: functional; details: KCTC 1621, 24 h
Erythrocyte = assay: Hemolytic activity in human RBC after 1 hr; assay type: ADME, cell-based
[5] = Therapeutic index, ratio of MHC10 for human RBC to MIC for Escherichia coli KCTC 1682; assay type: toxicity; details: red blood cells (RBC), pooled result: one value given for 6 cell lines, strains, targets or settings, read-out: TI
RAW264.7 [6] = assay: Cytotoxicity against mouse RAW264.7 cells up to 128 uM after 48 hrs by MTT assay; assay type: cell-based; details: raw264.7, 48 h
RAW264.7 [7] = assay: Anti-inflammatory activity in mouse RAW264.7 cells assessed as reduction in LPS-induced nitric oxide production at 10 to 20 uM after 24 hrs by Griess assay; assay type: functional, cell-based
RAW264.7 [8] = assay: Anti-inflammatory activity in mouse RAW264.7 cells assessed as reduction in LPS-induced TNF-alpha production at 10 to 20 uM preincubated for 1 hr followed by LPS stimulation measured after 6 hrs by ELISA; assay type: functional, cell-based
RAW264.7 [9] = assay: Anti-inflammatory activity in mouse RAW264.7 cells assessed as reduction in LPS-induced IL-6 production at 10 to 20 uM preincubated for 1 hr followed by LPS stimulation measured after 6 hrs by ELISA; assay type: functional, cell-based
RAW264.7 [10] = assay: Anti-inflammatory activity in mouse RAW264.7 cells assessed as reduction in LPS-induced MCP-1 production at 10 to 20 uM preincubated for 1 hr followed by LPS stimulation measured after 6 hrs by ELISA; assay type: functional, cell-based
RAW264.7 [11] = assay: Anti-inflammatory activity in mouse RAW264.7 cells assessed as reduction in LPS-induced iNOS mRNA expression at 5 uM after 6 hrs by RT-PCR analysis; assay type: functional, cell-based
RAW264.7 [12] = assay: Anti-inflammatory activity in mouse RAW264.7 cells assessed as reduction in LPS-induced TNF-alpha mRNA expression at 10 uM after 3 hrs by RT-PCR analysis; assay type: functional, cell-based
RAW264.7 [13] = assay: Anti-inflammatory activity in mouse RAW264.7 cells assessed as reduction in LPS-induced IL-6 mRNA expression at 10 uM after 3 hrs by RT-PCR analysis; assay type: functional, cell-based
Staphylococcus aureus [14] = assay: Antibacterial activity against methicillin resistant Staphylococcus aureus CCARM 3089 after 24 hrs; assay type: functional; details: CCARM 3089, 24 h
Staphylococcus aureus [15] = assay: Antibacterial activity against methicillin resistant Staphylococcus aureus CCARM 3090 after 24 hrs; assay type: functional; details: CCARM 3090, 24 h
Staphylococcus aureus [16] = assay: Antibacterial activity against methicillin resistant Staphylococcus aureus CCARM 3095 after 24 hrs; assay type: functional; details: CCARM 3095, 24 h
Pseudomonas aeruginosa [17] = assay: Antibacterial activity against multidrug-resistant Pseudomonas aeruginosa CCARM 2109 after 24 hrs; assay type: functional; details: CCARM 2109, 24 h
Enterococcus faecium = assay: Antibacterial activity against Vancomycin-resistant Enterococcus faecium ATCC 51559 after 24 hrs; assay type: functional; details: ATCC 51559, 24 h
Escherichia coli [18] = assay: Antibacterial activity against Escherichia coli KCTC 1682 in presence of 150 mM NaCl after 24 hrs; assay type: functional; details: KCTC 1682, 24 h
Escherichia coli [19] = assay: Antibacterial activity against Escherichia coli KCTC 1682 in presence of 4.5 mM KCl after 24 hrs; assay type: functional; details: KCTC 1682, 24 h
Escherichia coli [20] = assay: Antibacterial activity against Escherichia coli KCTC 1682 in presence of 6 uM NH4Cl after 24 hrs; assay type: functional; details: KCTC 1682, 24 h
Escherichia coli [21] = assay: Antibacterial activity against Escherichia coli KCTC 1682 in presence of 1 mM MgCl2 after 24 hrs; assay type: functional; details: KCTC 1682, 24 h
Escherichia coli [22] = assay: Antibacterial activity against Escherichia coli KCTC 1682 in presence of 2.5 mM CaCl2 after 24 hrs; assay type: functional; details: KCTC 1682, 24 h
Escherichia coli [23] = assay: Antibacterial activity against Escherichia coli KCTC 1682 in presence of 20% human serum after 24 hrs; assay type: functional; details: KCTC 1682, 24 h
Staphylococcus aureus [24] = assay: Antibacterial activity against Staphylococcus aureus KCTC 1621 in presence of 6 uM NH4Cl after 24 hrs; assay type: functional; details: KCTC 1621, 24 h
Staphylococcus aureus [25] = assay: Antibacterial activity against Staphylococcus aureus KCTC 1621 in presence of 1 mM MgCl2 after 24 hrs; assay type: functional; details: KCTC 1621, 24 h
Staphylococcus aureus [26] = assay: Antibacterial activity against Staphylococcus aureus KCTC 1621 in presence of 20% human serum after 24 hrs; assay type: functional; details: KCTC 1621, 24 h
Staphylococcus aureus [27] = assay: Ratio of MIC for Staphylococcus aureus KCTC 1621 in presence of 20% human serum to MIC for Escherichia coli KCTC 1682 in presence of 20% human serum; assay type: functional
Pseudomonas aeruginosa [28] = assay: Antibiofilm activity against multidrug-resistant Pseudomonas aeruginosa CCARM 2095 after 24 hrs by crystal violet staining based assay; assay type: functional
Pseudomonas aeruginosa [29] = assay: Synergistic antibacterial activity against multidrug-resistant Pseudomonas aeruginosa CCARM 2095 after 72 hrs in presence of chloramphenicol by chequerboard assay; assay type: functional
Pseudomonas aeruginosa [30] = assay: Synergistic antibacterial activity against multidrug-resistant Pseudomonas aeruginosa CCARM 2095 after 72 hrs in presence of ciprofloxacin by chequerboard assay; assay type: functional
Staphylococcus aureus [31] = assay: Antibacterial activity against Staphylococcus aureus KCTC 1621 assessed as cell membrane disruption at 2 times MIC within 4 mins by Sytox Green dye based fluorescence spectrophotometer assay; assay type: functional, organism-based
Staphylococcus aureus [32] = assay: Antibacterial activity against Staphylococcus aureus KCTC 1621 assessed as cytoplasmic membrane depolarization at 2 times MIC by disC3-5 dye based fluorescence assay; assay type: functional, organism-based
Staphylococcus aureus [33] = assay: Potency index, ratio of LL-37 MIC to compound MIC for methicillin resistant Staphylococcus aureus CCARM 3089; assay type: functional
Staphylococcus aureus [34] = assay: Potency index, ratio of LL-37 MIC to compound MIC for methicillin resistant Staphylococcus aureus CCARM 3090; assay type: functional
Staphylococcus aureus [35] = assay: Potency index, ratio of LL-37 MIC to compound MIC for methicillin resistant Staphylococcus aureus CCARM 3095; assay type: functional
Pseudomonas aeruginosa [36] = assay: Potency index, ratio of LL-37 MIC to compound MIC for multidrug-resistant Pseudomonas aeruginosa CCARM 2109; assay type: functional
Staphylococcus aureus [37] = assay: Potency index, ratio of melittin MIC to compound MIC for methicillin resistant Staphylococcus aureus CCARM 3090; assay type: functional
Staphylococcus aureus [38] = assay: Potency index, ratio of melittin MIC to compound MIC for methicillin resistant Staphylococcus aureus CCARM 3095; assay type: functional
Pseudomonas aeruginosa [39] = assay: Potency index, ratio of melittin MIC to compound MIC for multidrug-resistant Pseudomonas aeruginosa CCARM 2095; assay type: functional
Lipid bilayer = assay: Binding affinity to EYPE/EYPG small unilamellar vesicles assessed as intrinsic tryptophan acrylamide quenching constant by fluorescence assay (reference value: 5.95 to 7.56 /M)
[40] = Binding affinity to EYPC/cholesterol small unilamellar vesicles assessed as intrinsic tryptophan acrylamide quenching constant by fluorescence assay (reference value: 5.95 to 7.56 /M)

CC[C@H](C)[C@H](NC(=O)[C@H](CCCNC(=N)N)NC(=O)[C@@H](N)CCCCN)C(=O)N[C@H](C(=O)N[C@@H](CCCCN)C(=O)N[C@@H](CC(C)C)C(=O)N[C@H](CC(C)C)C(=O)N[C@@H](CC(C)C)C(=O)N[C@@H](CCCCN)C(=O)N[C@@H](Cc1c[nH]c2ccccc12)C(=O)N[C@@H](CC(C)C)C(=O)N[C@@H](CCCNC(=N)N)C(N)=O)C(C)C
MIC (Escherichia coli [1]): 4 µM (≈ 6.26 µg/mL) | MIC (Pseudomonas aeruginosa [2]): 8 µM (≈ 12.5 µg/mL) | MIC (Salmonella typhimurium): 2 µM (≈ 3.13 µg/mL) | MIC [3]: 4 µM (≈ 6.26 µg/mL) | MIC (Staphylococcus aureus [4]): 2 µM (≈ 3.13 µg/mL) | MHC10 (Erythrocyte): 111 µM | selectivity ratio [5]: 30 | Activity (RAW264.7 [6]): Non-Toxic | Activity (RAW264.7 [7]): Active | Activity (RAW264.7 [8]): Active | Activity (RAW264.7 [9]): Active | Activity (RAW264.7 [10]): Active | Activity (RAW264.7 [11]): Active | Activity (RAW264.7 [12]): Active | Activity (RAW264.7 [13]): Active | MIC (Staphylococcus aureus [14]): 4 µM (≈ 6.26 µg/mL) | MIC (Staphylococcus aureus [15]): 4 µM (≈ 6.26 µg/mL) | MIC (Staphylococcus aureus [16]): 4 µM (≈ 6.26 µg/mL) | MIC (Pseudomonas aeruginosa [17]): 4 µM (≈ 6.26 µg/mL) | MIC (Enterococcus faecium): 4 µM (≈ 6.26 µg/mL) | MIC (Escherichia coli [18]): 4 µM | MIC (Escherichia coli [19]): 4 µM | MIC (Escherichia coli [20]): 4 µM | MIC (Escherichia coli [21]): 8 µM | MIC (Escherichia coli [22]): 16 µM | MIC (Escherichia coli [23]): 4 µM | MIC (Staphylococcus aureus [24]): 2 µM | MIC (Staphylococcus aureus [25]): 8 µM | MIC (Staphylococcus aureus [26]): 16 µM | Ratio (Staphylococcus aureus [27]): 2 - 8 | MBIC90 (Pseudomonas aeruginosa [28]): 8 µM | fractional inhibitory concentration index (FICI) (Pseudomonas aeruginosa [29]): 0.5 | fractional inhibitory concentration index (FICI) (Pseudomonas aeruginosa [30]): 0.3125 | Activity (Staphylococcus aureus [31]): Active | Activity (Staphylococcus aureus [32]): Active | Ratio (Staphylococcus aureus [33]): 2 - 4 | Ratio (Staphylococcus aureus [34]): 2 - 4 | Ratio (Staphylococcus aureus [35]): 2 - 4 | Ratio (Pseudomonas aeruginosa [36]): 2 - 4 | Ratio (Staphylococcus aureus [37]): 2 - 4 | Ratio (Staphylococcus aureus [38]): 2 - 4 | Ratio (Pseudomonas aeruginosa [39]): 2 - 4 | KSV (Lipid bilayer): 1.01 M⁻¹ | KSV [40]: 2.98 M⁻¹
